Data taken from article PMC4492107 (Science signaling, 2015).

Biological target: T1, tcTERT (Tribolium castaneum TERT) (Tribolium castaneum, UniProt Q0QHL8)
T1 sequence (Q0QHL8 1-596): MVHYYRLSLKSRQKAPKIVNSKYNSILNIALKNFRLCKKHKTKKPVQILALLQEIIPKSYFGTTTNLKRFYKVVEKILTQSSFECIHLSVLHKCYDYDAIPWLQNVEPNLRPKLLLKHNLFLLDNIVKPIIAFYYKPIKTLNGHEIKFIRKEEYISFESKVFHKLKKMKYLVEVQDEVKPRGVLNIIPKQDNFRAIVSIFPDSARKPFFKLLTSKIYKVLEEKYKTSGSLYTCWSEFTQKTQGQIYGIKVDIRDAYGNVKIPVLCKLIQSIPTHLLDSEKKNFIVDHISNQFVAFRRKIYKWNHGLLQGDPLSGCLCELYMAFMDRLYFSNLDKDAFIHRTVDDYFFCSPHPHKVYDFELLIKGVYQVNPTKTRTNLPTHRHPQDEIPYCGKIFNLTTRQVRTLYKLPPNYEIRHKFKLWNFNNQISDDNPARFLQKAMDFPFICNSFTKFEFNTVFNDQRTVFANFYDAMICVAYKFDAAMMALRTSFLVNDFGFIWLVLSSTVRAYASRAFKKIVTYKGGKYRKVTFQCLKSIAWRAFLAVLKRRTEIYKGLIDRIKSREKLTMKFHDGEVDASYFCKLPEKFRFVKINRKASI
Experiment: SPR with POPC:POPE:S1P
Format: binding

With `CCCCCCCCCCCCC/C=C/[C@@H](O)[C@@H](N)COP(=O)(O)O` [S1P, sphingosine 1-phosphate] the Kd was about 4.8 µM.
